Series [1] relates to HT22 cells. Briefly: Glutathione determination in glutamate-treated cells. Type of series: cell-based, mouse. Particulars: HT22, 10 mM glutamate 8 hrs. The method, then: The content of total glutathione (reduced and oxidized) in the supernatant of cell homogenate was measured using the glutathione assay kit (Cayman Chemical) in microtiter plate assay, which utilizes an enzymatic recycling method, using glutathione reductase, for the quantification of glutathione. The sulfhydryl group of glutathione reacted with 5,5′-dithiobis-2-nitrobenzoic acid (DTNB) and produced a yellow-colored 5-thio-2-nitrobenzoic acid (TNB), which was measured at 405 nm.

Series [2] concerns HT22 cells. The series is described as follows: t-BuOOH toxicity protection (MTS cell viability). Type of series: cell-based, mouse. Particulars: HT22, 50 μM t-BuOOH. The method, then: Cell viability was assessed by the ability of the viable cells to metabolize 3-(4,5-dimethylthiazol-2-yl)-5-(3-carboxymethoxyphenyl)-2(4-sulfophenyl)2-H-tetrazolium, inner salt (MTS), as described previously (Cory et al., 1991). The metabolism of tetrazolium salts is often used to measure cellular proliferation, but in the system used here, it has been previously shown to correlate well with cell viability as determined by trypan blue exclusion and colony-forming assays (Davis and Maher, 1994). Briefly, HT-22 cells were seeded onto 96-well plates at 5.0×10^3 cells per well in 75 μL of medium and maintained at 37° C. in 5% CO2 overnight prior to the initiation of experimental treatments. For glutamate toxicity testing, cells were subsequently treated with 25 μL of medium containing glutamate (monosodium glutamate, Sigma, 1 M stock concentration in media, to achieve a final concentration of 10 mM) plus inhibitors (stock in DMSO) and maintained at 37° C. in 5% CO2. For t-BuOOH toxicity testing, cells were subsequently treated with 25 μL of medium containing t-BuOOH (Sigma, 10 mM stock concentration, to achieve a final concentration of 50 μM) plus inhibitors (stock in DMSO) and maintained at 37° C. in 5% CO2 for 3 hours, after which the media was removed, cells washed gently with HBSS, the media replaced with standard culture media, and the cells returned to incubation at 37° C. in 5% CO2. For both glutamate and t-BuOOH treatments, 10 μl of MTS solution was added to each well 24 hrs after initial treatment, and the cells were maintained in growth medium for 2 h at 37° C. Absorbance at 490 nm was subsequently measured by a SpectraMax 190 plate reader (Molecular Devices). The growth medium without cells in the presence of MTS solution was used as solution background and untreated cells were considered the controls. Cell viability was calculated as a percentage compared with untreated controls. EC50 determinations were based on 12-point titrations using GraphPad Prism, and each experiment was repeated at least four times. Morphology of HT22 cells following treatments was determined by phase-contrast microscopy. Digital images of cells grown on cell culture plates were captured at 10× magnification.
In light of the findings that the protection against glutamate induced cell death provided by VK2, 2q, and 2j, are at least partially mediated by the attenuation of the increased production of endogenous ROS, the inventors also examined the effects of these compounds on tert-butylhydroperoxide (t-BuOOH) induced cell death. t-BuOOH is a short chain analog of the lipid hydroperoxides formed from peroxidation reactions during oxidative stress that is cytotoxic to cells (Lemasters and Nieminen, 1997). […] It is well documented that cells undergo rapid and extensive fragmentation in the early stages of cell death (Bossy-Wetzel et al., 2003; Frank et al., 2001; Breckenridge et al., 2008; Jagasia et al., 2005; Lee et al., 2004). Recent studies have shown that mitochondrial fragmentation is regulated by the translocation of dynamin-related protein 1 (Drp1) from the cytosol to the mitochondria, where it assembles to form spirals at division sites (Smirnova et al., 2001). Although the exact molecular mechanism is still not well studied, the activity of Drp1 is regulated by the phosphorylation and dephosphorylation of specific serine residues by protein kinases and phosphatases such as calcineurin and the PGAM5 (Wang et al., 2012; Chang et al., 2007). […]

The nature of series [3]: Antioxidant activity assay (DPPH free radical scavenging). Particulars: 20 μM, 100 μM DPPH in methanol. The method, then:
Antioxidant activity of various reagents was assayed as previously described by monitoring the disappearance of the optical absorbance of the stable-free radical DPPH on reaction with test compounds (Blois, 1958). The rate of the reaction represents the antioxidant potency of test agents. The known free radical scavenger Trolox and ascorbic acid were used as positive controls. Briefly, 10 μL of test reagents at final concentrations of 20 μM were added to 200 μL of 100 μM DPPH in methanol. Optical absorbance of DPPH at 517 nm was immediately monitored for 10 min.

Series [4] deals with zebrafish larvae. The series is described as follows: Zebrafish larval toxicity (NOEC, lethal dose). Type of series: in vivo. Particulars: 7 dpf zebrafish larvae; highest sub-lethal dose. The method, then:
Using a 96-well plate, one zebrafish larva (7 dpf) was placed in each well in 100 μL of tank water (TW). 100 μL of each compound (0.5-15 μM) was then added to each well for 12 animals (one row) to give a final volume of 200 […]. A control row was tested for DMSO toxicity effects. […] Each drug was assessed for the no observed effect concentration (NOEC), the highest non-lethal dose resulting in no apparent toxic effects.
Zebrafish (AB strain) were obtained from the Zebrafish International Resource Center (supported by P40 RR012546 from NIH-NCRR). Zebrafish were maintained and crossed according to standard methods (Westerfield, 2000). Fertilized eggs were collected and placed in E3 embryo medium and positioned in an incubator set at 28.5° C. with a 14/10 h light/dark cycle (Kimmel et al., 1995). To determine the lethal dose of each compound, 96-well plates containing one zebrafish (7 days post-fertilization, dpf) per well in 100 μL of tank water were used. 100 μL of each compound (0.5 to 15 μM) was added to each well for 12 animals (one row) for a final volume of 200 μL. One row of larvae was used as DMSO only controls. […] All zebrafish studies were approved by the Medical University of South Carolina Institutional Animal Care and Use Committee (AR #2850) and performed in accordance with the guidelines.
Using a 96-well plate, one zebrafish larva (7 dpf) was placed in each well in 100 μL of tank water. 100 μL of each compound was then added to each well for 12 animals (one row) for a final volume of 200 μL. One row of zebrafish larvae was used as DMSO only controls. […] Toxicity was also measured in the mouse model by the NIH Anticonvulsant Screening Program at the National Institute of Neurological Disorders and Stroke (Stables and Kupferberg, 1997), according to the established NIH experimental procedures. Compounds were delivered into mice by intraperitoneal (i.p.) injection at a dose of 100 mg/kg in sterile 5% DMSO, 95% Neobee (Josey et al., 2013). Acute toxicity was assessed by monitoring the animals for impaired neuromuscular function by placing treated mice on a rod rotating at 6 rpm. […]

Series [5] concerns PTZ-induced seizures. The series is described as follows: PTZ-induced seizure (swim activity) model in zebrafish larvae. Type of series: in vivo, zebrafish (Danio rerio). As for the experimental part: The DanioVision locomotion tracking instrument with Ethovision XT software (Noldus) was used to measure the severity of the seizures by quantifying the locomotor activity of each fish.
In a 48-well plate, one 6-7 dpf larva was added per well. Compounds were given at a sub-lethal dose and treated for 1 h. Three control rows were included—tank water (TW) only, PTZ only and PTZ+VPA (2-4 mM final concentration of VPA). […] After 5 min, the plate was transferred to the Daniovision apparatus and the chamber light was turned on. After 2 min, Ethovision was used to determine the distance traveled (a marker of seizure of activity) by each fish for 15 min (25 frames per second). Velocity, duration of movement, and frequency of movement were also determined from the same recording. After measurement, fish were monitored visually for survival. The distance moved over the recording period with Ethovision XT software (Noldus) was averaged over 8 wells per treatment unless the fish was not detected.
In a 48-well plate, one 7 dpf zebrafish was added per well. Larvae were dosed with each compound at a sub-lethal dose 1 h prior to PTZ treatment. Three control rows were included with each experiment—tank water only control, PTZ only and PTZ+VPA (4 mM final concentration of VPA). […] After 5 min, the plate was transferred to the Daniovision instrument (Noldus Information Technology) and the chamber light was turned on. After 2 min, MediaRecorder (Noldus) was used to record video for 15 min. A small number of videos were acquired 25 frames per second, but the majority of the data was acquired at the frame rate of 60 frames per second. After recording, fish were monitored visually for survival. Ethovision XT software (Noldus) was used to track the fish movement from the video images in order to calculate the total distance traveled over 15 min. […] All experimental comparisons were made between animals from the same clutch.

For series [6], the system named is c-fos. Briefly: c-fos gene expression in PTZ-treated zebrafish larvae. Particulars: 7 dpf zebrafish, pre-treatment. Type of series: in vivo, zebrafish (Danio rerio). The method, then: Ten 7 dpf larvae were placed in 500 μL tank water in wells of a 48-well cell-culture plate and appropriate concentrations of drugs were added as in the behavior study (Table 9). After a 1 h pre-incubation period, PTZ was added to a final concentration of 15 mM in appropriate wells and larvae were incubated for a further 45 min. Fish were quickly euthanized by incubating the plate in an ice-water bath for 15 min. Fish were removed from each well and all liquid removed before freezing at −80° C. RNA was extracted using Trizol (Invitrogen) followed by the RNeasy Mini kit (Qiagen). Frozen embryos were homogenized in 800 μL Trizol using in-tube pestles and a motorized homogenizer. Following a 5-min incubation at room temperature, 200 μL chloroform was added and the samples were centrifuged at 12,000 g for 10 min. The aqueous phase was transferred to a new tube and 250 μL 100% ethanol was added and the samples mixed. This mixture was then transferred to the Qiagen minicolumn assembly and the protocol followed as described with the kit. Samples were eluted in 30 μL RNase free water and concentration was determined using the Nanodrop instrument (Thermo Fisher). cDNA was prepared using the RETROscript kit (Ambion) with 500 ng total RNA. cDNA was then diluted 1:1 with sterile dH2O and 2.5 μL of this cDNA was used in the QPCR reaction with SsoAdvanced SYBR Green Supermix (BioRad) and c-fos primers designed to span an intron-exon junction (c-fos F: […], SEQ ID NO:9; c-fos R: […], SEQ ID NO:10) ([…] each) in the BioRad CFX96 RealTime instrument. L13a and EF1a gene expression were used for normalization (Rahn et al., 2013). The following cycle conditions were used: 95° C./3 min, 40 cycles of 95° C./15 s, 62° C./30 s, followed by 95° C. 30 s and a dissociation curve. Samples were run in duplicate. The 2^−ΔΔCt method was used to quantify gene expression, whereby all gene Ct values were first normalized to Ct values of the geometric mean of the Ct of L13a and EF1a (Livak and Schmittgen, 2001). Treated samples were then normalized to the tank water control and converted to fold change.

Here are results for six compounds from patent US10391070B2, “Compositions and methods for treating neurological diseases or injury” (MUSC FOUNDATION FOR RESEARCH DEVELOPMENT, priority 2012, dated 2019).

For `COC1=C(OC)C(=O)C(CCCCCCCCCCO)=C(C)C1=O` [Ideb, Idebenone], the “depletion of total cellular GSH” value in series [1] (5 μM) was “did not prevent GSH depletion”.

On to `CN1C(=O)C(Cc2c[nH]c3ccccc23)NC1=S` (stereo not drawn) [Nec-1, Necrostatin-1], for which, in series [1] (50 μM), the “depletion of total cellular GSH” value was “did not prevent GSH depletion”.

Turning to `Cc1c(C)c2c(c(C)c1O)CCC(C)(C(=O)O)O2` (stereo not drawn) [Trolox], the “protection from t-BuOOH induced cell death” value in series [2] is given as “less effective”. Besides, the “depletion of total cellular GSH” value in series [1] (25 μM) is on record as “did not prevent GSH depletion”. Further, the “free radical scavenging capacity (DPPH absorbance)” value in series [3] is listed as “rapidly scavenged DPPH”.

As to `CCCC(CCC)C(=O)O` [Valproic Acid (VPA), 2-n-propylpentanoic acid], the “Highest concentration tested for anti-seizure activity” value in series [4] is on record as 4 mM. In series [5] (PTZ-treated zebrafish larvae), the “required concentration for reduction of seizures” value came out at 4 mM. Further, the Seizure suppression result in series [5] (PTZ-treated zebrafish larvae, pretreated 1 hr at NOEC) is on record as “Yes”. Besides, the “PTZ-induced swim activity (distance traveled)” value in series [5] (zebrafish larvae, 1 h pretreatment at sub-lethal concentration (VPA 4 mM, NQN-1 3 μM), 15 mM PTZ) was “significantly reduced distance traveled compared to PTZ alone”. The “PTZ-induced increase in c-fos expression” value in series [6] is reported as “able to blunt this increase in expression”.

Take `O=C1O[C@H]([C@@H](O)CO)C(O)=C1O` [ascorbic acid]: in series [3], the “free radical scavenging capacity (DPPH absorbance)” value is “rapidly scavenged DPPH”.

Take `COC1=C(OC)C(=O)C(C/C=C(\C)CC/C=C(\C)CC/C=C(\C)CC/C=C(\C)CC/C=C(\C)CC/C=C(\C)CC/C=C(\C)CC/C=C(\C)CC/C=C(\C)CCC=C(C)C)=C(C)C1=O` [co-enzyme Q10]: the “protection from t-BuOOH induced cell death” value in series [2] is “less effective”.
